{
  "source": "patent US8748419B2",
  "about": "“Treating obesity with muscarinic receptor M1 antagonists” (priority 2006, dated 2014)",
  "key": {"[1]": {"assay": "Appetite suppression: high fat food consumption in fasted rats (4-Hour and 24-Hour Consumption)", "format": "in vivo, Sprague-Dawley rats", "source_text": "Appetite Suppression: Three-month-old (300-350 grams) male, Sprague-Dawley rats (individually housed) were used to assess compounds for their appetite suppressant effects. Rats were acclimatized to a “high fat” food diet (BioServ Diet #F3282 or Research Diets #12451) for two weeks prior to testing (access to food and water ad libitum). One day prior to the experiment (at 5:00 PM), food was removed from the cages in order to motivate feeding when the food was returned the following morning (water remained available throughout the experiment). Prior to presentation of the food, rats (n=8-10/dose group) were dosed intraperitoneally (ip) or orally (po) with the compound under investigation, returned to their home cage and immediately given a pre-weighed amount of food. Four hours after administration, the food was removed from the cage, weighed, recorded (4-Hour Consumption) and returned to the rat until the following morning. Twenty-four hours after administration, the remaining food was again weighed and recorded (24-Hour Consumption). Cumulative consumption (expressed in grams) was calculated for both the four and the twenty-four hour intervals. In this assay, vehicle-treated rats typically consume approximately 8 grams over the four-hour interval and approximately 25 grams over the twenty-four-hour interval.\nTreatment effects are presented in Table 1 and FIGS. 1-5 (4-Hour Consumption) and Table 2 and FIGS. 6-10 (24-Hour Consumption). The effects are given as both Raw Consumption (in grams ±SEM [1 standard error of the mean]) and as % Reduction in 4-Hour or 24-Hour Consumption=[1-(Consumption following Drug Treatment/Consumption following Vehicle Treatment)]×100%. Similar superscripts in the Dose column of Tables 1 and 2 denote values derived from the same experiment (to facilitate comparisons between individual treatments and co-administrations). Statistical analyses were performed using a 1-way ANOVA (analysis of variance) followed by a Bonferroni multiple comparison test with the overall alpha set at 0.05. In Tables 1 and 2, asterisks (*) denote significant effects compared to vehicle-treated rats, while letters (a or b) denote significant effects compared to rats treated with a single compound (“a” for significance from antidepressant and “b” for significance from telenzepine). In Tables 1 and 2, one symbol denotes p<0.05, two symbols denote p<0.01 and three symbols denote p<0.001). The symbols used for denoting statistical significance may be different in the corresponding figures."}, "[2]": {"conditions": "directly injected into the midbrain; cited from earlier work"}, "[3]": {"assay": "Reduction in weight gain of rats on a high fat diet (two-week treatment)", "format": "in vivo, Sprague-Dawley rats", "conditions": "for % Reduction: treatment minus vehicle % weight gain", "procedure": "Reduction in Weight Gain: Three- to four-month-old (475-550 grams) male, Sprague-Dawley rats (individually housed) were used to assess compounds for their ability to prevent weight gain. At the onset of chronic experiments, rats had been maintained (ad libitum access) on a “high fat” diet (BioServ Diet #F3282 or Research Diets #12451) for approximately one month. Individual body weights and water consumptions were recorded three times per week throughout the duration of the experiment. After approximately two weeks of data collection, rats were counter-balanced to produce treatment groups with equivalent mean body weights. Under isofluorane-induced anesthesia, rats were surgically implanted (subscapular, subcutaneous [sc] placement) with osmotic mini-pumps (Alzet 2mL2) containing the appropriate drug concentration (based on mean body weights and calculated durations of delivery). Alternatively, for studies using the oral route of administration, rats were dosed by gavage daily over 14 days at a volume of 3 mL/kg. Data collection was continued under drug treatment for approximately two more weeks. Change in body weight (expressed in grams) was calculated for the treatment interval. In this assay, vehicle-treated rats typically gain approximately 35-40 grams (+9%) over the two-week interval. Treatment effects are presented in Table 3 as % Weight Gain=[(Body Weight at End of Drug Infusion−Baseline Body Weight)/Baseline Body Weight]×100%, for both Vehicle and Treatment groups; as well as % Reduction=(% Weight Gain for Treatment group−% Weight Gain for Vehicle group). Body weights throughout the treatment period are presented in FIGS. 11-15 as the percentage of baseline body weight. Similar superscripts in the Dose column of Table 3 denote values derived from the same experiment (to facilitate comparisons between individual treatments and co-administrations). Statistical analyses were performed using a 1-way ANOVA (analysis of variance) followed by a Bonferroni multiple comparison test with the overall alpha set at 0.05. In Table 3, asterisks (*) denote significant effects compared to vehicle-treated rats, while letters (a or b) denote significant effects compared to rats treated with a single compound (“a” for significance from antidepressant and “b” for significance from telenzepine). In Table 3, one symbol denotes p<0.05, two symbols denote p<0.01 and three symbols denote p<0.001). The symbols used for denoting statistical significance may be different in the corresponding figures."}, "[4]": {"conditions": "24 h, 10 mg/kg ip, experiment e"}, "[5]": {"conditions": "24 h, 10 mg/kg po, experiment c"}, "[6]": {"conditions": "24 h, 30 mg/kg po, experiment c"}},
  "data": [
    {"compound": "Cc1scc2c1N(C(=O)CN1CCN(C)CC1)c1ccccc1NC2=O", "note": "[Telenzepine, 4,9-Dihydro-3-methyl-4-[(4-methyl-1-piperazinyl)acetyl]-10H-thieno[3,4-b][1,5]benzodiazepin-10-one]", "values": [
      {"measurement": "% Reduction in Consumption", "setting": "[1]; 4 h, 1 mg/kg ip, experiment b", "value": 43, "unit": "%"},
      {"measurement": "Treatment Consumption", "setting": "[1]; 4 h, 1 mg/kg ip, experiment b", "value": "4.0 ± 0.50", "unit": "g/4 Hrs"},
      {"measurement": "% Reduction in Consumption", "setting": "[1]; 4 h, 1 mg/kg ip, experiment e", "value": 38, "unit": "%"},
      {"measurement": "Treatment Consumption", "setting": "[1]; 4 h, 1 mg/kg ip, experiment e", "value": "5.7 ± 0.63", "unit": "g/4 Hrs"},
      {"measurement": "Treatment Consumption", "setting": "[1]; 4 h, 3 mg/kg ip, experiment a", "value": "4.2 ± 0.36", "unit": "g/4 Hrs"},
      {"measurement": "% Reduction in Consumption", "setting": "[1]; 4 h, 3 mg/kg ip, experiment a, 3 mg/kg", "value": 45, "unit": "%"},
      {"measurement": "% Reduction in Consumption", "setting": "[1]; 4 h, 3 mg/kg ip, experiment a, listed as telenzepine, 3 mg/kg", "value": 45, "unit": "%"},
      {"measurement": "Treatment Consumption", "setting": "[1]; 4 h, 3 mg/kg ip, experiment b", "value": "4.5 ± 0.40", "unit": "g/4 Hrs"},
      {"measurement": "% Reduction in Consumption", "setting": "[1]; 4 h, 3 mg/kg ip, experiment b, 3 mg/kg", "value": 35, "unit": "%"},
      {"measurement": "% Reduction in Consumption", "setting": "[1]; 4 h, 3 mg/kg ip, experiment b, listed as telenzepine, 3 mg/kg", "value": 35, "unit": "%"},
      {"measurement": "% Reduction in Consumption", "setting": "[1]; 4 h, 3 mg/kg ip, experiment e", "value": 40, "unit": "%"},
      {"measurement": "Treatment Consumption", "setting": "[1]; 4 h, 3 mg/kg ip, experiment e", "value": "5.5 ± 0.60", "unit": "g/4 Hrs"},
      {"measurement": "% Reduction in Consumption", "setting": "[1]; 4 h, 10 mg/kg ip, experiment e", "value": 56, "unit": "%"},
      {"measurement": "Treatment Consumption", "setting": "[1]; 4 h, 10 mg/kg ip, experiment e", "value": "4.1 ± 0.55", "unit": "g/4 Hrs"},
      {"measurement": "% Reduction in Consumption", "setting": "[1]; 4 h, 10 mg/kg po, experiment c", "value": 28, "unit": "%"},
      {"measurement": "Treatment Consumption", "setting": "[1]; 4 h, 10 mg/kg po, experiment c", "value": "7.4 ± 0.64", "unit": "g/4 Hrs"},
      {"measurement": "% Reduction in Consumption", "setting": "[1]; 4 h, 30 mg/kg po, experiment c", "value": 36, "unit": "%"},
      {"measurement": "Treatment Consumption", "setting": "[1]; 4 h, 30 mg/kg po, experiment c", "value": "6.6 ± 1.01", "unit": "g/4 Hrs"},
      {"measurement": "% Reduction in Consumption", "setting": "[1]; 24 h, 1 mg/kg ip, experiment b", "value": 16, "unit": "%"},
      {"measurement": "Treatment Consumption", "setting": "[1]; 24 h, 1 mg/kg ip, experiment b", "value": "20.9 ± 0.78", "unit": "g/24 Hrs"},
      {"measurement": "% Reduction in Consumption", "setting": "[1]; 24 h, 1 mg/kg ip, experiment e", "value": 18, "unit": "%"},
      {"measurement": "Treatment Consumption", "setting": "[1]; 24 h, 1 mg/kg ip, experiment e", "value": "23.6 ± 1.01", "unit": "g/24 Hrs"},
      {"measurement": "Treatment Consumption", "setting": "[1]; 24 h, 3 mg/kg ip, experiment a", "value": "17.5 ± 1.38", "unit": "g/24 Hrs"},
      {"measurement": "% Reduction in Consumption", "setting": "[1]; 24 h, 3 mg/kg ip, experiment a, 3 mg/kg", "value": 27, "unit": "%"},
      {"measurement": "% Reduction in Consumption", "setting": "[1]; 24 h, 3 mg/kg ip, experiment a, listed as telenzepine, 3 mg/kg", "value": 27, "unit": "%"},
      {"measurement": "Treatment Consumption", "setting": "[1]; 24 h, 3 mg/kg ip, experiment b", "value": "19.4 ± 0.94", "unit": "g/24 Hrs"},
      {"measurement": "% Reduction in Consumption", "setting": "[1]; 24 h, 3 mg/kg ip, experiment b, 3 mg/kg", "value": 22, "unit": "%"},
      {"measurement": "% Reduction in Consumption", "setting": "[1]; 24 h, 3 mg/kg ip, experiment b, listed as telenzepine, 3 mg/kg", "value": 22, "unit": "%"},
      {"measurement": "% Reduction in Consumption", "setting": "[1]; 24 h, 3 mg/kg ip, experiment e", "value": 32, "unit": "%"},
      {"measurement": "Treatment Consumption", "setting": "[1]; 24 h, 3 mg/kg ip, experiment e", "value": "19.7 ± 0.95", "unit": "g/24 Hrs"},
      {"measurement": "% Reduction in Consumption", "setting": "[1]; [4]", "value": 50, "unit": "%"},
      {"measurement": "Treatment Consumption", "setting": "[1]; [4]", "value": "14.5 ± 1.29", "unit": "g/24 Hrs"},
      {"measurement": "% Reduction in Consumption", "setting": "[1]; [5]", "value": 39, "unit": "%"},
      {"measurement": "Treatment Consumption", "setting": "[1]; [5]", "value": "18.5 ± 2.33", "unit": "g/24 Hrs"},
      {"measurement": "% Reduction in Consumption", "setting": "[1]; [6]", "value": 56, "unit": "%"},
      {"measurement": "Treatment Consumption", "setting": "[1]; [6]", "value": "13.3 ± 2.69", "unit": "g/24 Hrs"},
      {"measurement": "effect on consumption", "setting": "[1]; all doses tested (ip), given alone", "value": "significantly reduced consumption"},
      {"measurement": "GABA efflux", "setting": "[2]", "value": "reduced GABA efflux"},
      {"measurement": "Treatment: % Weight Gain", "setting": "[3]; 0.3 mg/kg sc, experiment c", "value": "4.4 ± 0.6", "unit": "%"},
      {"measurement": "% Reduction", "setting": "[3]; 0.3 mg/kg sc, experiment c", "value": "−0.9", "unit": "%"},
      {"measurement": "Treatment: % Weight Gain", "setting": "[3]; 1 mg/kg po, experiment d", "value": "3.3 ± 0.6", "unit": "%"},
      {"measurement": "% Reduction", "setting": "[3]; 1 mg/kg po, experiment d", "value": "−3.1", "unit": "%"},
      {"measurement": "reduction in body weight compared to vehicle treated rats", "setting": "[3]; 3 mg/kg of telenzepine alone", "value": 3.8, "unit": "%"},
      {"measurement": "Treatment: % Weight Gain", "setting": "[3]; 3 mg/kg sc, experiment a", "value": "1.5 ± 1.0", "unit": "%"},
      {"measurement": "% Reduction", "setting": "[3]; 3 mg/kg sc, experiment a", "value": "−7.1", "unit": "%"},
      {"measurement": "Treatment: % Weight Gain", "setting": "[3]; 3 mg/kg sc, experiment b", "value": "4.3 ± 0.8", "unit": "%"},
      {"measurement": "% Reduction", "setting": "[3]; 3 mg/kg sc, experiment b", "value": "−3.8", "unit": "%"}
    ]}
  ]
}
